The nature of the series: Toxicity in Artemia salina. To be noted: in vivo, read-out: LD50 (the source's name). Type of series: organism-based.

For the molecule `COc1cc2c3c(c1O)C1(C=C(Br)C(=O)C(Br)=C1)C[C@@H]3N(C)CC2` [SALDEDINE A], the LC50 came out at 4.4 µM.

`COc1cc2c3c(c1O)C1(C=C(Br)C(O)C(Br)=C1)C[C@@H]3N(C)CC2` (some centres not stated) [SALDEDINE B]: the LC50 came out at 10.9 µM.

For the origin of these results see ChEMBL document CHEMBL1151822, “Saldedines A and B, dibromo proaporphine alkaloids from a Madagascan tunicate” (J Nat Prod, 2009).
